# Test results: article PMC11960969, “Mdga2 deficiency leads to an aberrant activation of BDNF/TrkB signaling that underlies autism-relevant synaptic and behavioral changes in mice” (PLOS Biology, 2025)
# Test system: hippocampal proteins
# Test: DIA quantification proteomics, hippocampus of Mdga2+/- vs WT mice
# Parameters: species or system mouse
# Details: S3 Table, downregulated DEPs; for log2FC: Mdga2+/- vs WT mouse hippocampus (HET-HIP-VS-WT-HIP), SE, pvalue and adj_pvalue in own columns c3-c5; for Class: regulation class of the protein, HET-HIP-VS-WT-HIP
# Method: The hippocampus of 1.5–2-month-old Mdga2^ +/− male mice and their WT littermate controls was collected and sent to the BGI company for DIA quantification proteomics and data analysis. Briefly, samples were lysed and sonicated. After centrifugation, the supernatant was taken for quantification. Equal amounts of proteins (100 μg) per sample were subjected to trypsin enzymatic hydrolysis. After dryness, 10 μg enzymatic peptides per sample were separated by high-pH fractionation into a total of 10 fractions using high-performance liquid chromatography (HPLC) and freeze-dried. Data-dependent acquisition (DDA) fractions and DIA samples were analyzed by nano-LC–MS/MS. DDA data was identified by Andromeda search engine within MaxQuant. Identified results were used by Spectronaut^TM for spectral library construction. For DIA data, Spectronaut^TM used the constructed spectral library information to complete deconvolution and extraction, and used the mProphet algorithm to complete analytical quality control for obtaining reliable quantitative results. The mass spectrometry proteomics data have been deposited to the ProteomeXchange Consortium via the PRIDE [62] partner repository with the dataset identifier PXD050810. DEPs between comparison groups were identified based on the quantitative results, using the fold change >1.1 and p-value <0.05 as the criteria. After retrieval from the UniProtKB database, identified DEPs were processed for GO analysis by using DAVID (https://david.ncifcrf.gov/home.jsp) and Metascape database (https://metascape.org/gp/index.html).
Substance,log2FC,Class
sp¦Q91WG7¦DGKG_MOUSE,-3.157,Down
sp¦P97433¦ARG28_MOUSE,-1.853,Down
sp¦Q3UQ44¦IQGA2_MOUSE,-1.377,Down
sp¦A2A791¦ZMYM4_MOUSE,-2.935,Down
sp¦Q80YX1¦TENA_MOUSE,-1.6471,Down
sp¦A2AF47¦DOC11_MOUSE,-1.478,Down
sp¦Q0VGY8¦TANC1_MOUSE,-2.363,Down
sp¦P27038¦AVR2A_MOUSE,-1.635,Down
